Legend:
pSMAD2/SMAD2 ratio = experiment: Precision cut lung slices from human IPF lung tissue, pSMAD2/SMAD2 ratio; format: cell-based; conditions: PCLS from 3 IPF lung tissues, seven days, Compound 5 at 1.82 μM, FIG. 6F
Description: PCLS from 3 IPF lung tissues were cultured for seven days with Compound 5. […] The ratio of pSMAD2/SMAD2 is also graphed for the PCLS in the presence of 0.1% DMSO control, and an Alk5 inhibitor at 1 μM

SMAD3 phosphorylation = experiment: PSMAD3/SMAD3 in healthy mice treated for 4 days; format: in vivo; conditions: 4 days of treatment
Source text: It has been previously shown that inhibition of αvβ6 in the lung can be detected though measurement of phospho-SMAD (pSMAD) in alveolar macrophages. Alveolar macrophages are known to operate in a unique niche in the lung, distinct from interstitial macrophages. SMAD3 is a downstream target of the active TGF-β cytokine binding its receptor and in alveolar macrophages it is phosphorylated by homoeostatic levels of TGF-β. Accordingly, it was desirable to know whether inhibition of TGF-β activation using the disclosed compounds would result in reduced SMAD2 and SMAD3 phosphorylation.
FIG. 4A is a graph of PSMAD3/SMAD3 in lung tissue from healthy mice administered PBS vehicle and varying levels of compound 5 for 4 days. FIG. 4B is a graph of PSMAD3/SMAD3 in BALF drawn from the same healthy mice administered PBS vehicle and varying levels of compound 5 for 4 days.

lung Col1a1 expression = experiment: Precision cut lung slices, chronic bleomycin, versus pirfenidone and nintedanib (Example B10); format: cell-based, mice; conditions: 7 days culture, vs DMSO vehicle, FIG. 6A
Description: Mice (C57BL/6) were administered 3 U/kg of bleomycin (Teva Pharmaceuticals; North Wales, Pa.) on Day 0 and 1 U/kg of bleomycin on days 14, 28, 42 and 56 via oropharyngeal aspiration while under anesthesia. At day 70, 14 days following the final bleomycin insult, precision cut lung slices were obtained. Following euthanization, 2% low gelling temp agarose was injected into the mouse lungs via the trachea. […] The lobes were then subjected to precision slicing to obtain samples for culture using a microtome (Compresstome VF-300-0Z, Precisionary; Greenville, N.C.). Individual slices were distributed in a multiwell culture plate and cultured for 7 days under control (DMSO) and test compound conditions. The viability of the slices over the course of culturing was confirmed by WST-1 assay of mitochondrial activity.
During the culture period, slices in the control group were treated with DMSO and slices in the test group were treated with a DMSO solution of one of compound 5; nintedanib; pirfenidone; a combination of nintedanib and compound 5; a combination of pirfenidone and compound 5; or the small molecule ALK5 inhibitor. Compound 5 was […] effective to equal or exceed its respective IC50 values at αvβ6 and αvβ1. The small molecule ALK5 inhibitor was analyzed at […] its reported IC50 value. Nintendanib and pirfenidone were analyzed at concentrations 10× their reported therapeutic concentrations.

[1] = system: IPF-derived human lung fibroblasts; experiment: LAP adhesion binding assay, IPF-derived human lung fibroblasts; format: cell-based; conditions: adhesion to LAP, cell index (electrical impedance), FIG. 3B
Description: Two latency associated peptide (LAP) adhesion binding assays were devised using primary human lung cells, including normal (healthy) human bronchial epithelial cells and human lung fibroblasts (healthy and IPF).
Human lung fibroblasts derived from normal and IPF lung tissue are known to express αvβ1 integrin. The IPF-derived human lung fibroblasts were prepared for the assay by dissociation with trypsin/EDTA, and were seeded at 20,000 cells per well on 96 well plates (ACEA Bioscience E-plate View, Acea Biosciences; San Diego, Calif.) previously coated with 5 μg/ml of recombinant human LAP (R&D Systems; Minneapolis, Minn.) and blocked with 4% bovine serum albumin. Cell index (electrical impedance) was measured to assess cell attachment/spreading every 3 minutes for 24 hours at 37° C./5% CO2 using the xCELLigence RTCA MP Instrument (Acea Biosciences; San Diego, Calif.). […] In the assay, the IPF-derived human lung fibroblasts were separately incubated with: the αvβ1-selective small molecule inhibitor; the selective antibody αvβ6 inhibitor, 3G9; and compound 5.

[2] = system: Type I Collagen gene Col1a1 expression; experiment: Precision cut lung slices, mice under acute bleomycin exposure (Example B8); format: cell-based; conditions: 3 days culture, normalized to DMSO, FIG. 5A
Description: Mice (C57BL/6) were administered 3 U/kg of bleomycin (Teva Pharmaceuticals; North Wales, Pa.) on day 0 via oropharyngeal aspiration while under anesthesia. On day 14, precision cut lung slices were obtained. Following euthanization, 2% low gelling temp agarose was injected into the mouse lungs via the trachea. […] The lobes were then subjected to precision slicing to obtain samples for culture using a microtome (Compresstome VF-300-0Z, Precisionary; Greenville, N.C.). Individual slices were distributed in a multiwell culture plate and cultured for 3 days under control (DMSO) and test compound conditions.

pSMAD2:SMAD2 ratio = experiment: pSMAD2/SMAD2 in BAL from healthy human subjects (Example B13); format: in vivo; conditions: Day 7, subjects with Cmax above 700 ng/mL, compared to placebo group, 20 or 40 mg daily
Description: In order to evaluate the change of pSMAD2 as a biomarker of TGF-β activity following administration of an integrin inhibitor, and to determine a therapeutically effective dosage and an effective blood plasma Cmax of the integrin inhibitor, healthy subjects were administered compound 5, a dual selective αvβ6/αvβ1-integrin inhibitor, and the corresponding Cmax levels and decrease in phosphorylation levels and were determined.
Healthy non-smoking adult males without history of lung disease were selected as subjects and were randomized into 4 cohorts. Broncoalevaolar lavage samples were obtained from all subjects 1 day prior to start of treatment. Cohorts 1 and 2 were administered 20 mg of a compound daily, wherein 3 subjects were administered the dual selective αvβ6/αvβ1-integrin inhibitor (compound 5) per every 1 subject receiving a placebo compound. Cohorts 3 and 4 were administered 40 mg of a compound daily, wherein 3 subjects were administered the dual selective αvβ6/αvβ1-integrin inhibitor (compound 5) per every 1 subject receiving a placebo compound. BAL samples and blood samples were taken from all subjects on Day −1 (baseline) and on Day 7 (end of treatment).

COL1A1 expression = COL1A1 expression in precision cut lung slices (PCLS) from human IPF lung tissue; conditions: FIG. 6E, 200 pM to 1 μM

Structure (SMILES): COCCN(CCCCc1ccc2c(n1)NCCC2)CC[C@H](Nc1ncnc2ccccc12)C(=O)O [Compound 5, (S)-4-((2-methoxyethyl) (4-(5,6,7,8-tetrahydro-1,8-naphthyridin-2-yl)butyl)amino)-2-(quinazolin-4-ylamino) butanoic acid]
- reduction of pSMAD2/SMAD2 ratio (pSMAD2/SMAD2 ratio): approximately 50%
- PSMAD3/SMAD3 in lung tissue (SMAD3 phosphorylation; FIG. 4A): approximately 50 % of the untreated levels
- PSMAD3/SMAD3 in BALF (SMAD3 phosphorylation; cells isolated from BALF, FIG. 4B): approximately 50 % of the untreated levels
- lung slice Col1a1 expression (lung Col1a1 expression): substantial, statistically significant (p<0.01 vs vehicle) decrease
- cell adhesion in the IPF-derived lung fibroblasts [1]: substantially inhibited
- Type I Collagen gene Col1a1 expression [2]: decreased Type I Collagen gene Col1a1 expression substantially
- reduction in pSMAD2:SMAD2 ratio (pSMAD2:SMAD2 ratio): ≥ 50%
- COL1A1 expression (COL1A1 expression): dose dependent reduction

— patent US11419869B2, “Dosage forms and regimens for amino acid compounds” (Pliant Therapeutics, Inc., priority 2019, dated 2022)
